The values below come from patent publication US20250127728A1, “Constrained Ionizable Cationic Lipids and Lipid Nanoparticles” (CAPSTAN THERAPEUTICS, INC., priority 2023, published 2025).

Each structure is given as a SMILES string. Read-outs that look alike come from different tables or passages of the source.

The test system of one series is splenic T cells. Kind of series: in vivo transfection with mCherry mRNA by CD5-targeted tLNP, splenic T cells. As to conditions: C57BL/6 mice; for transfection rate in spleen T cells: 10 μg mRNA tail vein, 24 hours. The protocol:
(§1) To assess the ability of a constrained ionizable cationic lipids to facilitate in vivo transfection of T cells with mCherry mRNA (SEQ ID NO. 5), tLNP incorporating CICL-207, or for comparison, CICL-1, and conjugated to an anti-mouse CD5 antibody were prepared and administered to C57BL/6 mice. The tLNP comprised either CICL-207 or CICL-1, DSPC, cholesterol, either DMG-PEG(2000) or DSG-PEG(2000), and DSPE-PEG(2000)-maleimide in the proportions indicated in Table 7 (below) and an N/P ratio of 6. CICL-1 has the structure:
Briefly, to prepare the tLNP, N1-methylpseudouridine (m1ψ)-substituted mCherry mRNA was encapsulated in LNP using a self-assembly process in which an aqueous solution of mRNA at pH 3.5 was rapidly mixed with a solution of lipids dissolved in ethanol, then followed by stepwise phosphate and Tris buffer dilution and tangential flow filtration (TFF) purification. Then an anti-CD5 mAb was conjugated to the above LNP to generate tLNP. Purified rat anti-mouse CD5 antibody, clone 53-7.3 (BioLegend), was coupled to LNP via N-succinimidyl S-acetylthioacetate (SATA)-maleimide conjugation chemistry. Briefly, LNPs with DSPE-PEG(2000)-maleimide incorporated were formulated and stored at 4° C. on the day of conjugation. The antibody was modified with SATA (Sigma-Aldrich) to introduce sulfhydryl groups at accessible lysine residues allowing conjugation to maleimide. SATA was deprotected using 0.5 M hydroxylamine followed by removal of the unreacted components by G-25 Sephadex Quick Spin Protein columns (Roche Applied Science, Indianapolis, IN). The reactive sulfhydryl group on the antibody was then conjugated to maleimide moieties on the LNPs using thioether conjugation chemistry. Purification was performed using Sepharose CL-4B gel filtration columns (Sigma-Aldrich). tLNPs (LNPs conjugated with a targeting antibody) were frozen at −80° C.
The mice were administered tLNPs containing 10 μg of mRNA by tail vein injection and tissue was harvested 24 hours later. […] These same trends have been observed with tLNP comprising CICL-1 as the ionizable lipid (data not shown). The tLNP comprising 58% ionizable cationic lipid had similarly low transfection rates (<4%) for CD45^− liver cells (hepatocytes)(FIG. 1B). […]

The nature of series [1]: apparent or measured pKa of ionizable lipid in the lipid nanoparticle, TNS assay. In kind it is physicochemical. How it is done: The apparent or measured pKa of ionizable lipid in the lipid nanoparticle was determined using 6-(p-toluidino)-2-naphthalenesulfonic acid sodium salt (TNS salt, Toronto Research Chemicals, Toronto, ON, Canada). Lipid nanoparticles were diluted in 1×Dulbecco's PBS to a concentration of 1 mM total lipids. TNS salt was prepared as a 1 mg/mL stock solution in DMSO and then further diluted using distilled water to a working solution of 60 μg/mL ([…]). Diluted lipid nanoparticle samples were further diluted to 90 μM total lipids in 165 μL of buffered solution containing 10 mM HEPES, 10 mM MES, 10 mM ammonium acetate, 130 mM NaCl, and final TNS concentration of 1.33 μg/mL (4 μM) with the pH ranging from 3.5 to 12.2. Following pipette mixing and incubation at room temperature in the dark for 15 min, fluorescence intensity was measured at room temperature in a BioTek Synergy H1 plate reader using excitation and emission wavelengths of 321 and 445 nm, respectively. The fluorescence signal was blank subtracted and plotted as a function of the pH, then analyzed using a nonlinear (Boltzmann) regression analysis with the apparent pKa determined as the pH giving rise to half maximal fluorescence intensity as calculated by the Henderson-Hasselbalch equation.

For series [2], the system named is liver Kupffer cells (CD45+/CD11+ liver cells). Kind of series: in vivo transfection with mCherry mRNA by CD5-targeted tLNP, liver Kupffer cells. As to conditions: C57BL/6 mice, 10 μg mRNA tail vein, 24 hours. The protocol: as §1
Briefly, to prepare the tLNP, N1-methylpseudouridine (m1ψ)-substituted mCherry mRNA was encapsulated in LNP using a self-assembly process in which an aqueous solution of mRNA at pH 3.5 was rapidly mixed with a solution of lipids dissolved in ethanol, then followed by stepwise phosphate and Tris buffer dilution and tangential flow filtration (TFF) purification. Then an anti-CD5 mAb was conjugated to the above LNP to generate tLNP. […]
Further ionizable cationic lipids according to Formula M2 were incorporated into tLNP and the ability of the tLNP to transfect cells in vivo assessed essentially as described in the preceding Example. Their physicochemical properties as determined in various experiments are compiled in Table 10.

Series [3] in a line: apparent or measured pKa of ionizable lipid in the lipid nanoparticle, TNS assay. The class given is physicochemical. Particulars: predicted from c-pKa and measured pKa of CICL-207.
The mark [4] stands for this setting: Table 11, in tLNP formulation, read-out: Measured pKa.
Setting [5] is: read-out: measured pKa (in tLNP formulation).

Take `CCCCCCCCC(=O)OCC(COC(=O)CCCCCCCC)CC(=O)O[C@H]1C=C[C@H](OC(=O)CC(COC(=O)CCCCCCCC)COC(=O)CCCCCCCC)CN(C(=O)OCCN(C)C)C1` (racemic) [CICL-218, (((Rel-(3S,6S)-1-((2-(dimethylamino)ethoxy)carbonyl)-2,3,6,7-tetrahydro-1H-azepine-3,6-diyl)bis(oxy))bis(2-oxoethane-2,1-diyl))bis(propane-2,1,3-triyl) tetranonanoate]: the “transfection rate in spleen T cells” value with splenic T cells is reported as “ca. 20%”. For the same compound, the results for the pKa in series [1] (setting [4]) and in series [1] (setting [5]) were 6.07 and 6.11, respectively.

As to `CCCCCCCCC(=O)OCC(COC(=O)CCCCCCCC)CC(=O)OCCN(CCOC(=O)CC(COC(=O)CCCCCCCC)COC(=O)CCCCCCCC)C(=O)OCCN(C)C` [CICL-1, reference compound], in series [2], the “transfection rate for liver Kupffer cells (CD45+/CD11+)” value was around 6%.

In the case of `CCCCCCCCC(=O)OCC(COC(=O)CCCCCCCC)CC(=O)OC[C@@H]1C[C@@H](OC(=O)CC(COC(=O)CCCCCCCC)COC(=O)CCCCCCCC)CN1C(=O)OCCN(CCC)CCC` [CICL-207-109], the “measured pKa in formulation (prediction)” value in series [3] was “close to the desired pKa=6-7 midpoint”.

`CCCCCCCCC(=O)OCC(COC(=O)CCCCCCCC)CC(=O)OC[C@@H]1C[C@@H](OC(=O)CC(COC(=O)CCCCCCCC)COC(=O)CCCCCCCC)CN1C(=O)OCCN1CCCCC1` [CICL-207-119]: in series [3], the “measured pKa in formulation (prediction)” value is listed as “close to the desired pKa=6-7 midpoint”.

On to `CCCCCCCCC(=O)OCC(COC(=O)CCCCCCCC)CC(=O)OC[C@@H]1C[C@@H](OC(=O)CC(COC(=O)CCCCCCCC)COC(=O)CCCCCCCC)CN1C(=O)OCCCN1CCC(O)CC1` [CICL-207-122], for which the “measured pKa in formulation (prediction)” value in series [3] is reported as “close to the desired pKa=6-7 midpoint”.

`CCCCCCCCC(=O)OCC(COC(=O)CCCCCCCC)CC(=O)OC[C@@H]1C[C@@H](OC(=O)CC(COC(=O)CCCCCCCC)COC(=O)CCCCCCCC)CN1C(=O)OCCN(C)c1ccncc1` [CICL-207-130]: the “measured pKa in formulation (prediction)” value in series [3] is listed as “close to the desired pKa=6-7 midpoint”.

Consider `CCCCCCCCC(=O)OCC(COC(=O)CCCCCCCC)CC(=O)O[C@H]1CN(C(=O)OCCN(C)C)C[C@H]1OC(=O)CC(COC(=O)CCCCCCCC)COC(=O)CCCCCCCC` [CICL-216, (((Rel-(3S,4R)-1-((2-(dimethylamino)ethoxy)carbonyl)pyrrolidine-3,4-diyl)bis(oxy))bis(2-oxoethane-2,1-diyl))bis(propane-2,1,3-triyl) tetranonanoate], for which, in the series on splenic T cells (in words), the “performance of tLNP: transfection rate and expression level (MESF)” value (shortened to “performance of tLNP”) was 3 of the 4 poorest performing tLNP. In addition, in series [1], the “measured pKa (in tLNP formulation)” value is recorded as “fell outside the range of 6 to 7”.

Turning to `CCCCCCCCC(=O)OCC(COC(=O)CCCCCCCC)CC(=O)OC[C@@H]1C[C@@H](OC(=O)CC(COC(=O)CCCCCCCC)COC(=O)CCCCCCCC)CN1C(=O)SCCN(C)C` [CICL-217, 2-(2-(((2S,4R)-1-(((2-(dimethylamino)ethyl)thio)carbonyl)-4-((4-(nonanoyloxy)-3-((nonanoyloxy)methyl)butanoyl)oxy)pyrrolidin-2-yl)methoxy)-2-oxoethyl)propane-1,3-diyl dinonanoate], the “performance of tLNP” value in the series with splenic T cells (in words) is listed as 3 of the 4 poorest performing tLNP. For the same compound, in series [1], the “measured pKa (in tLNP formulation)” value was “fell outside the range of 6 to 7”.

As for `CCCCCCCCC(=O)OCC(COC(=O)CCCCCCCC)CC(=O)OC[C@@H]1C[C@H](OC(=O)CC(COC(=O)CCCCCCCC)COC(=O)CCCCCCCC)CN1C(=O)OCCN(C)C` [CICL-224, 2-(2-(((2S,4S)-1-((2-(dimethylamino)ethoxy)carbonyl)-4-((4-(nonanoyloxy)-3-((nonanoyloxy)methyl)butanoyl)oxy)pyrrolidin-2-yl)methoxy)-2-oxoethyl)propane-1,3-diyl dinonanoate], the “transfection rate in spleen T cells” value in the series on splenic T cells is on record as “below 40%”. Besides, the values for the pKa in series [1] (setting [4]) and in series [1] (setting [5]) were 6.98 and around 7, respectively.

Regarding `CCCCCCCCC(=O)OCC(COC(=O)CCCCCCCC)CC(=O)OC[C@H]1C[C@H](OC(=O)CC(COC(=O)CCCCCCCC)COC(=O)CCCCCCCC)CN1C(=O)OCCN(C)C` [CICL-225, 2-(2-(((2R,4S)-1-((2-(dimethylamino)ethoxy)carbonyl)-4-((4-(nonanoyloxy)-3-((nonanoyloxy)methyl)butanoyl)oxy)pyrrolidin-2-yl)methoxy)-2-oxoethyl)propane-1,3-diyl dinonanoate], the “effect of ionizable cationic lipid content (50%, 58%, 62%, 65%) on transfection rate” value in the series on splenic T cells (in words) is “greater in both types of liver cells”.

As for `CCCCCCCCC(=O)OCC(COC(=O)CCCCCCCC)CC(=O)O[C@@H]1C[C@H](OC(=O)CC(COC(=O)CCCCCCCC)COC(=O)CCCCCCCC)CN(C(=O)OCCN(C)C)C1` [CICL-238, (((Rel-(3R,5S)-1-((2-(dimethylamino)ethoxy)carbonyl)piperidine-3,5-diyl)bis(oxy))bis(2-oxoethane-2,1-diyl))bis(propane-2,1,3-triyl) tetranonanoate], the “performance of tLNP” value with splenic T cells (in words) is listed as 3 of the 4 poorest performing tLNP. For the same compound, the pKa in series [1] (setting [5]) came to 7.09.

As to `CCCCCCCCC(=O)OCC(COC(=O)CCCCCCCC)CC(=O)OC[C@@H]1C[C@H](OC(=O)CC(COC(=O)CCCCCCCC)COC(=O)CCCCCCCC)CN1C(=O)N1CCN(C)CC1` [CICL-239, 2-(2-(((2S,4S)-1-(4-methylpiperazine-1-carbonyl)-4-((4-(nonanoyloxy)-3-((nonanoyloxy)methyl)butanoyl)oxy)pyrrolidin-2-yl)methoxy)-2-oxoethyl)propane-1,3-diyl dinonanoate], the pKa in series [1] (setting [4]) and in series [1] (setting [5]) was 6.25 in each case.
